Measurements from patent publication US5854282A, “3-benzoyl benzofuran derivatives as thyroid hormone antagonists” (Karo Bio AB, priority 1994, dated 1998).
pIC50: −log10 of the molar value.

How the values were obtained:
[1] = target: T1, human thyroid hormone receptor β1 (ThRβ1) (Homo sapiens, UniProt P10828); assay: Competition with 125I-T3 for binding to human thyroid hormone receptor β1 (ThRβ1); conditions: competition with 0.2 nM 125I-T3
T1 sequence (P10828 1-461): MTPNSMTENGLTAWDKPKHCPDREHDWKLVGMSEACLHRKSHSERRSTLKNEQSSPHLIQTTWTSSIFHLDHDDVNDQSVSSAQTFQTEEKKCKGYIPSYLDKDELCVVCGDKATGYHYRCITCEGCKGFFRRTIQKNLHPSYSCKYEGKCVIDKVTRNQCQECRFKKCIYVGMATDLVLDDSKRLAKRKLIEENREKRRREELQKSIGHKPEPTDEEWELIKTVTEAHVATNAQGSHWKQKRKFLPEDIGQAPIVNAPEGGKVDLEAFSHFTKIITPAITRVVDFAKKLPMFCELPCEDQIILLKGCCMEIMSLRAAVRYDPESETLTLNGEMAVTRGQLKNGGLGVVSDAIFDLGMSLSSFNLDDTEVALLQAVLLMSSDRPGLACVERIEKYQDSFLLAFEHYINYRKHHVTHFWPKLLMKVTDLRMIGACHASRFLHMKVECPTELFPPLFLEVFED
Procedure: (§1) A series of dilutions of each compound produced (Examples 1-15) were allowed to compete with a fixed concentration (0.2 nM) of ^125 I-T3 for binding to the human thyroid hormone receptor β1 (ThRβ1). In some examples, binding to the human thyroid hormone receptor α1 (ThRα1) was included.
(§2) After reaching equilibrium a separation step on Sephadex-G25 columns was introduced whereby the receptors were separated from compounds of low molecular weight (i.e the radioactive labeled hormones). The eluated receptor bound radioactivity was measured in a gamma-counter or with regular liquid scintillation counting.
(§3) An IC50 -value (The concentration of compound required to inhibit 50% of the binding of radioactive labeled hormone) was calculated from the curves.

[2] = target: T2, human thyroid hormone receptor α (Homo sapiens, UniProt P10827); assay: ALP reporter gene activity in TRAF α thyroid hormone reporter cells (agonism/antagonism ± T3); format: cell-based; conditions: for antagonism to T3 in the ThRα reporter cell line / augmention of the agonism of T3 in the ThRα reporter cell line: in the presence of 1 nM T3; for partial agonist/antagonist activity in the ThRα reporter cell line: ±1 nM T3
T2 sequence (P10827 1-370): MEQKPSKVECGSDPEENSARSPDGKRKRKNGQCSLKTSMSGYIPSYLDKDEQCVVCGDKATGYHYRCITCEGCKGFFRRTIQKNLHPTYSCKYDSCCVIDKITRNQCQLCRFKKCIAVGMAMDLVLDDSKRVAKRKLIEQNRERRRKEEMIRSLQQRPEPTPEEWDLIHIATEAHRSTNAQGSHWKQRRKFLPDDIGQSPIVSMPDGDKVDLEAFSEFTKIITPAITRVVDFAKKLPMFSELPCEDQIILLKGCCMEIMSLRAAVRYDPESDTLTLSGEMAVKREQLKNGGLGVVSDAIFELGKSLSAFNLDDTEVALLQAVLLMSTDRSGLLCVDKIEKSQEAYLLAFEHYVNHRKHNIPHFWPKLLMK
Procedure: (§4) The biological activity of compounds in accordance with the invention was tested in thyroid hormone responsive reporter cell lines.
(§5) The thyroid hormone reporter cell lines (TRAF α and TRAF β) are genetically engineered, mammalian cell lines expressing thyroid hormone receptor (ThR) α and β, respectively. These thyroid hormone responding cell lines contain stable integrated artificial transcription units comprised of a thyroid hormone response element (TRE) and core promoter sequences fused to a downstream reporter gene encoding a secreted form of alkaline phosphatase (ALP).
(§6) In the absence of thyroid hormone the cells express only very low levels of the ALP reporter protein. […] The level of thyroid hormone dependent ALP protein expressed can be determined indirectly by an enzymatic chemiluminescence assay as previously described (Advances in Steroid Analysis '93, editor: Gorog S., Proceedings of the 5th Symposium on the analysis of Steroids, Published by Akademiai Kiado, Budapest, Hungary, p. 57-67). Briefly, an aliquot of the conditioned cell culture medium is mixed with AMPPD (disodium 3-4-methoxyspiro(1,2-dioxetane-3,2'-tricyclo(3,3.1)decan)-4-yl) phenyl phosphate containing assay buffer and incubated at 37° C. for 20 minutes. AMPPD was purchased from Boule Diagnostic, Sweden. The ALP in the medium sample dephosphorylates AMPPD generating an unstable intermediate which decomposes and emits light which is measured in a microplate format luminometer (Luminoskan, Labsystems, Finland). The rate of light emission is directly proportional to the level of ALP present in the sample.
The TRAF α and β cells, respectively, were seeded at a density of 2-2.5×10^4 cells/well in 96-well microtiterplates (suitable for growth of mammalian cells). The cells were seeded in Coon's medium (without phenolred) (SVA, Uppsala, Sweden)+10% FCS (Gibco-BRL) (hormone stripped) and cultivated overnight at 37° C. and 5% CO2 in a humidified incubator.
The cells were then cultivated at 37° C. and 5% CO2 in a humidified incubator for an additional 48 hours.
48 hours post addition of the hormonal/test compounds, cell number and cell morphology were examined under the light-microscope. A 10 μl aliquot of conditioned medium from each well was then transferred to white microtiterplates and assayed for the level of ALP reporter protein expressed (as described in Advances in Steroid Analysis '93 above). In addition, the cell toxic effect of compounds was determined by the colorimetric MTS/PMS assay according to the suppliers recommendation (Promega Corp. through Scandinavian Diagnostic Services, Sweden)
Hormone/test compounds added to the TRAF α and β reporter cells, respectively, per well in 96-well microtiter plates

[3] = target: T3, human thyroid hormone receptor β (Homo sapiens, UniProt P10828); assay: ALP reporter gene activity in TRAF β thyroid hormone reporter cells (agonism/antagonism ± T3); format: cell-based; conditions: for antagonist activity in the ThRβ reporter cell line: in the presence of 1 nM T3
T3 sequence (P10828 1-461): T1 sequence (P10828 1-461)
Procedure: as §4, §5, §6
The TRAF α and β cells, respectively, were seeded at a density of 2-2.5×10^4 cells/well in 96-well microtiterplates (suitable for growth of mammalian cells). […]
48 hours post addition of the hormonal/test compounds, cell number and cell morphology were examined under the light-microscope. […] In addition, the cell toxic effect of compounds was determined by the colorimetric MTS/PMS assay according to the suppliers recommendation (Promega Corp. through Scandinavian Diagnostic Services, Sweden) […]

[4] = target: T4, human thyroid hormone receptor α1 (ThRα1) (Homo sapiens, UniProt P10827); assay: Competition with 125I-T3 for binding to human thyroid hormone receptor α1 (ThRα1); conditions: competition with 0.2 nM 125I-T3
T4 sequence (P10827 1-410 isoform P10827-2): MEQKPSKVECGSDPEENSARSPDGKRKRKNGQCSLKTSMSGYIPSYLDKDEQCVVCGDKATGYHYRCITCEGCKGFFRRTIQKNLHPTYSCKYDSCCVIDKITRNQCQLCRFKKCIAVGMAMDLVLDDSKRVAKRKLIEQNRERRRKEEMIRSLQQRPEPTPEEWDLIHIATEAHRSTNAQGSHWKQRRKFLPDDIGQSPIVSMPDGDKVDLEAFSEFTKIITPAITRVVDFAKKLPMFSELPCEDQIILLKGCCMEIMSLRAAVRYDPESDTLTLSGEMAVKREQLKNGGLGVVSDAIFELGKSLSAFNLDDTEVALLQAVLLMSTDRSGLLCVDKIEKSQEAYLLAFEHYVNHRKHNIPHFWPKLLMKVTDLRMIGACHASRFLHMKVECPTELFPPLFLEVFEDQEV
Procedure: as §1, §2, §3

SMILES	pIC50 [1]	pIC50 [4]	further results
CCCCc1oc2ccc(NS(=O)(=O)C(F)(F)F)cc2c1C(=O)c1cc(I)c(OCC(=O)O)c(I)c1 [Example 1, 2-n-Butyl-3(3,5-diiodo-4-carboxymethoxybenzoyl)-5-trifluoromethylsulphonamidobenzofuran]	5.65	–	antagonism to T3 in the ThRα reporter cell line [2]: no antagonism to T3; augmention of the agonism of T3 in the ThRα reporter cell line [2]: concentration dependent augmention of the agonism of T3
CCCCc1oc2ccc(NC(=O)c3ccc(OC)cc3)cc2c1C(=O)c1cc(I)c(OCC(=O)O)c(I)c1 [Example 3, 2-n-Butyl-3-(3,5-diiodo-4-carboxymethoxybenzoyl)-5-(4-methoxybenzamido)benzofuran]	5.82	–	–
COc1ccc(C(=O)Nc2ccc3oc(C(C)C)c(C(=O)c4cc(I)c(OCC(=O)O)c(I)c4)c3c2)cc1 [Example 7, 2-Isopropyl-3-(3,5-diiodo-4-carboxymethoxybenzoyl)-5-(4-methoxybenzamido)benzofuran]	5.44	–	–
CC(C)c1oc2ccc(NS(=O)(=O)C(F)(F)F)cc2c1C(=O)c1cc(I)c(OCC(=O)O)c(I)c1 [Example 6, 2-isopropyl-3-(3,5-diiodo-4-carboxymethoxybenzoyl)-5-trifluoromethylsulphonamidobenzofuran]	5.43	–	–
CCCCc1oc2ccc(NC(=O)Nc3ccc(OC)cc3)cc2c1C(=O)c1cc(I)c(OCC(=O)O)c(I)c1 [Example 11, 2-n-Butyl-3-(3,5-diiodo-4-carboxymethoxybenzoyl)-5-(4-methoxyphenylureido)benzofuran]	5.43	5.49	partial agonist/antagonist activity in the ThRβ reporter cell line ([3]; ±1 nM T3): partial agonist/antagonist activity; partial agonist/antagonist activity in the ThRα reporter cell line [2]: partial agonist/antagonist activity
CCCCc1oc2ccc(NC(=O)C(C)C)cc2c1C(=O)c1cc(I)c(OCC(=O)O)c(I)c1 [Example 2]	5.18	–	antagonism to T3 in the ThRα reporter cell line [2]: no antagonism to T3; augmention of the agonism of T3 in the ThRα reporter cell line [2]: concentration dependent augmention of the agonism of T3
CCCCc1oc2ccc(NC(=O)c3ccc(F)cc3)cc2c1C(=O)c1cc(I)c(OCC(=O)O)c(I)c1 [Example 9, 2-n-Butyl-3-(3,5-diiodo-4-carboxymethoxybenzoyl)-5-(4-fluorobenzamido)benzofuran]	5.45	5.48	–

Further compounds by rising pIC50 [1], results first:

pIC50 [1]	pIC50 [4]	SMILES	further results
5.10	–	CC(C)c1oc2ccc(NS(=O)(=O)C(F)(F)F)cc2c1Cc1cc(I)c(OCC(=O)O)c(I)c1 [Example 5, 2-Isopropyl-3-(3,5-diiodo-4-carboxymethoxybenzyl)-5-trifluoromethylsulphonamidobenzofuran]	antagonism to T3 in the ThRα reporter cell line [2]: no antagonism to T3; augmention of the agonism of T3 in the ThRα reporter cell line [2]: concentration dependent augmention of the agonism of T3
5.37	–	CC(C)c1oc2ccc(NC(=O)c3ccc([N+](=O)[O-])cc3)cc2c1C(=O)c1cc(I)c(OCC(=O)O)c(I)c1 [Example 10, 2-Isopropyl-3-(3,5-diiodo-4-carboxymethoxybenzoyl)-5-(4-nitrobenzamido)benzofuran]	–
5.46	5.44	COc1ccc(C(=O)Nc2ccc3oc(C(C)C)c(C(=O)c4cc(Br)c(OCC(=O)O)c(Br)c4)c3c2)cc1 [Example 14, 2-Isopropyl-3-(3,5-dibromo-4-carboxymethoxybenzoyl)-5-(4-methoxybenzamido)benzofuran]	antagonist activity in the ThRβ reporter cell line [3]: no or only weak antagonist activity; partial agonist/antagonist activity in the ThRα reporter cell line [2]: partial agonist/antagonist activity
5.48	5.51	CC(C)c1oc2ccc(NC(=O)c3ccc(O)cc3)cc2c1C(=O)c1cc(Br)c(OCC(=O)O)c(Br)c1 [Example 15, 2-Isopropyl-3-(3,5-dibromo-4-carboxymethoxybenzoyl)-5-(4-hydroxybenzamido)benzofuran]	antagonist activity in the ThRβ reporter cell line [3]: no or only weak antagonist activity; partial agonist/antagonist activity in the ThRα reporter cell line [2]: partial agonist/antagonist activity
5.62	5.59	CCCCc1oc2ccc(NC(=O)c3ccc(O)cc3)cc2c1C(=O)c1cc(Br)c(OCC(=O)O)c(Br)c1 [Example 13, 2-n-Butyl-3-(3,5-dibromo-4-carboxymethoxybenzoyl)-5-(4-hydroxybenzamido)benzofuran]	–
5.69	5.60	CCCCc1oc2ccc(NC(=O)c3ccc(O)cc3)cc2c1C(=O)c1cc(I)c(OCC(=O)O)c(I)c1 [Example 4, 2-n-Butyl-3-(3,5-diiodo-4-carboxymethoxybenzoyl)-5-(4-hydroxybenzamido)benzofuran]	–
5.74	–	CC(C)c1oc2ccc(NC(=O)c3ccc(O)cc3)cc2c1C(=O)c1cc(I)c(OCC(=O)O)c(I)c1 [Example 8, 2-Isopropyl-3-(3,5-diiodo-4-carboxymethoxybenzoyl)-5-(4-hydroxybenzamido)benzofuran]	–
5.90	5.74	CCCCc1oc2ccc(NC(=O)Nc3ccc(O)cc3)cc2c1C(=O)c1cc(I)c(OCC(=O)O)c(I)c1 [Example 12, 2-n-Butyl-3-(3,5-diiodo-4-carboxymethoxybenzoyl)-5-(4-hydroxyphenylureido)benzofuran]	–
